Reference: patent US20230303540A1 (Merck Sharp & Dohme LLC, priority 2020, published 2023)

Target: GST-tagged truncated human mutant G2019S LRRK2 (Homo sapiens, UniProt Q5S007, G2019S)
Test: LRRK2 G2019S Km ATP LanthaScreen assay
Format: biochemical
Details: 134 μM ATP (Km ATP), LRRKtide substrate, mean IC50 values; read-out: LRRK2 pIC50 (converted)
Protocol: Unless otherwise noted, all reactions are magnetically stirred. Unless otherwise noted, when diethyl ether is used in the experiments described below, it is Fisher ACS certified material and is stabilized with BHT. Unless otherwise noted, “concentrated” and/or “solvent removed under reduced pressure” means evaporating the solvent from a solution or mixture using a rotary evaporator or vacuum pump. Unless otherwise noted, flash chromatography is carried out on a Teledyne Isco (Lincoln, NE), Analogix (Burlington, WI), or Biotage (Stockholm, SWE) automated chromatography system using a commercially available cartridge as the column. Columns may be purchased from Teledyne Isco, Analogix, Biotage, Varian (Palo Alto, CA), or Supelco (Bellefonte, PA) and are usually filled with silica gel as the stationary phase. Reverse phase prep-HPLC conditions, where used, can be found at the end of each experimental section. Aqueous solutions were concentrated on a Genevac (Ipswich, ENG) or by freeze-drying/lyophilization. Unless otherwise noted, all LRRK2 pIC50 data presented in tables refers to the LRRK2 G2019S Km ATP LanthaScreen™ assay (Life Technologies Corp., Carlsbad, CA) that is described in the Biological Assay section.
The IC50 values reported herein were measured as follows.
Biological Assay: LRRK2 Km ATP LanthaScreen™ Assay
The LRRK2 kinase activity reported herein as IC50 values was determined with LanthaScreen™ technology from Life Technologies Corporation (Carlsbad, CA) using GST-tagged truncated human mutant G2019S LRRK2 in the presence of the fluorescein-labeled peptide substrate LRRKtide, also from Life Technologies. The data presented for the Km ATP LanthaScreen™ Assay represents mean IC50 values based on several test results and may have reasonable deviations depending on the specific conditions and reagents used. Assays were performed in the presence of 134 μM ATP (Km ATP). Upon completion, the assay was stopped and phosphorylated substrate detected with a terbium (Tb)-labeled anti-pERM antibody (cat. no. PV4898). The compound dose response was prepared by diluting a 10 mM stock of compound to a maximum concentration of 9.99 μM in 100% dimethylsulfoxide followed by custom fold serial dilution in dimethylsulfoxide nine times. Twenty nanoliters of each dilution was spotted via a Labcyte Echo onto a 384-well black-sided plate (Corning 3575) followed by 15 μl of a 1.25 nM enzyme solution in 1× assay buffer (50 mM Tris pH 8.5, 10 mM MgCl2, 0.01% Brij-35, 1 mM EGTA, 2 mM dithiothreitol, 0.05 mM sodium orthovanadate). Following a 15-minute incubation at room temperature, the kinase reaction was started with the addition of 5 μl of 400 nM fluorescein-labeled LRRKtide peptide substrate and 134 μM ATP solution in 1× assay buffer. The reaction was allowed to progress at ambient temperature for 90 minutes. The reaction was then stopped by the addition of 20 μl of TR-FRET Dilution Buffer (Life Technologies, Carlsbad, CA) containing 2 nM Tb-labeled anti-phospho LRRKtide antibody and 10 mM EDTA (Life Technologies, Carlsbad, CA). After an incubation of 1 hour at room temperature, the plate was read on an EnVision multimode plate reader (Perkin Elmer, Waltham, MA) with an excitation wavelength of 337 nm (Laser) and a reading emission at both 520 and 495 nm. Compound IC50s were interpolated from nonlinear regression best fits of the log of the final compound concentration, plotted as a function of the 520/495-nm emission ratio using Activity base. Abase uses a 4 parameter (4P) logistic fit based on the Levenberg-Marquardt algorithm.

Compound `CC1(n2ncc(Nc3ncc4cc(Cl)c(N5CCN(CCC#N)CC5)cc4n3)c2Cl)CC1` [Ex-3.20, 3-[4-(6-chloro-2-{[5-chloro-1-(1-methylcyclopropyl)-1H-pyrazol-4-yl]amino}quinazolin-7-yl)piperazin-1-yl]propanenitrile] has an IC50 of 1.07 nM.

Work on `CC(C)(O)Cn1ncc(Nc2ncc3cc(Cl)c(N4CCN(C5(C)COC5)CC4)cc3n2)c1Cl` [Ex-4.51, 1-[5-chloro-4-({6-chloro-7-[4-(3-methyloxetan-3-yl)piperazin-1-yl]quinazolin-2-yl}amino)-1H-pyrazol-1-yl]-2-methylpropan-2-ol] yielded an IC50 of 2.76 nM.

`Cc1c(Nc2ncc3cc(Cl)c(N4CCN(C5COCC5O)CC4)cc3n2)cnn1C(C)(C)C#N` (single isomer, unassigned) [Ex-6.23, (3S,4S) or (3R,4R) 2-[4-({6-chloro-7-[4-(4-hydroxyoxolan-3-yl)piperazin-1-yl]quinazolin-2-yl}amino)-5-methyl-1H-pyrazol-1-yl]-2-methylpropanenitrile] was tested, and the IC50 was 13.2 nM.

`Cc1c(Nc2ncc3ccc(N4C(=O)OC[C@@H]4C)cc3n2)cnn1C1CCOCC1` [Ex-1.48, (4S)-4-methyl-3-(2-{[5-methyl-1-(oxan-4-yl)-1H-pyrazol-4-yl]amino}quinazolin-7-yl)-1,3-oxazolidin-2-one] showed an IC50 of 0.625 nM.

Work on `Cc1c(Nc2ncc3ccc(N4C(=O)OCC4C4CC4)cc3n2)cnn1C1CCOCC1` (single isomer, unassigned) [Ex-7.13, (R) or (S) 4-cyclopropyl-3-(2-{[5-methyl-1-(oxan-4-yl)-1H-pyrazol-4-yl]amino}quinazolin-7-yl)-1,3-oxazolidin-2-one] yielded an IC50 of 11.4 nM.

In the case of `CC1(N2CCN(c3cc4nc(Nc5cnn(C6CC6)c5Cl)ncc4cc3Cl)CC2)COCC1O` (single isomer, unassigned) [Ex-1.45, (3S,4S or 3R,4R)-4-(4-{6-chloro-2-[(5-chloro-1-cyclopropyl-1H-pyrazol-4-yl)amino]quinazolin-7-yl}piperazin-1-yl)-4-methyloxolan-3-ol], the IC50 is reported as 21.3 nM.

`C[C@H]1COC(=O)N1c1ccc2cnc(Nc3cnn([C@@H]4CCN(C5COC5)C[C@H]4F)c3Cl)nc2c1` [Ex-7.2, (4S)-3-[2-({5-chloro-1-[(3R,4R)-3-fluoro-1-(oxetan-3-yl)piperidin-4-yl]-1H-pyrazol-4-yl}amino)quinazolin-7-yl]-4-methyl-1,3-oxazolidin-2-one] was tested, and the IC50 was 0.625 nM.

Work on `Cc1c(Nc2ncc3cc(Cl)c(N4CCC(C)(O)C(C)C4)cc3n2)cnn1C1CC1` (single isomer, unassigned) [Ex-3.49, (3R,4R) or (3S,4S) or (3R,4S) or (3S,4R) 1-{6-chloro-2-[(1-cyclopropyl-5-methyl-1H-pyrazol-4-yl)amino]quinazolin-7-yl}-3,4-dimethylpiperidin-4-ol] yielded an IC50 of 1.33 nM.

`CC(C)c1cc(Nc2ncc3ccc(N4C(=O)OC[C@@H]4C)cc3n2)ns1` [Ex-8.9, (4S)-4-methyl-3-(2-{[5-(propan-2-yl)-1,2-thiazol-3-yl]amino}quinazolin-7-yl)-1,3-oxazolidin-2-one] gave an IC50 of 8.03 nM.

Work on `Cn1ncc(Nc2ncc3cc(Cl)c(N4CCN(C5(C)COC5)CC4)cc3n2)c1Cl` [Ex-4.47, 6-chloro-N-(5-chloro-1-methyl-1H-pyrazol-4-yl)-7-[4-(3-methyloxetan-3-yl)piperazin-1-yl]quinazolin-2-amine] yielded an IC50 of 8.56 nM.

Work on `CCn1ncc(Nc2ncc3ccc(N4C(=O)OC[C@@H]4C)cc3n2)c1C` [Ex-7.1, (S)-3-(2-((1-ethyl-5-methyl-1H-pyrazol-4-yl)amino)quinazolin-7-yl)-4-methyloxazolidin-2-one] yielded an IC50 of 0.989 nM.

Compound `CCC1(N2CCN(c3cc4nc(Nc5cnn(C6CC6)c5Cl)ncc4cc3Cl)CC2)COC1` [Ex-4.30, 6-chloro-N-(5-chloro-1-cyclopropyl-1H-pyrazol-4-yl)-7-[4-(3-ethyloxetan-3-yl)piperazin-1-yl]quinazolin-2-amine] has an IC50 of 15.7 nM.

In the case of `CC(C)(O)Cn1cc(Nc2ncc3cc(Cl)c(N4CCC(C)(O)CC4)cc3n2)cn1` [Ex-3.12, 1-(6-chloro-2-{[1-(2-hydroxy-2-methylpropyl)-1H-pyrazol-4-yl]amino}quinazolin-7-yl)-4-methyl-piperidin-4-ol], the IC50 is reported as 0.221 nM.

`Cc1cc2cnc(Nc3cnn(C4CC4)c3Cl)nc2cc1N1CCC(C)(O)CC1` [Ex-3.55, 1-{2-[(5-chloro-1-cyclopropyl-1H-pyrazol-4-yl)amino]-6-methylquinazolin-7-yl}-4-methylpiperidin-4-ol] was tested, and the IC50 was 12.1 nM.

`Cc1nscc1Nc1ncc2cc(Cl)c(N3CCN(C4(C)COC4)CC3)cc2n1` [Ex-4.67, 6-chloro-7-[4-(3-methyloxetan-3-yl)piperazin-1-yl]-N-(3-methyl-1,2-thiazol-4-yl)quinazolin-2-amine] showed an IC50 of 23.8 nM.

`Cc1c(Nc2ncc3cc(Cl)c(N4CCN(C5COCC5O)CC4)cc3n2)cnn1CC(F)(F)F` (single isomer, unassigned) [Ex-6.37, (3S,4S) or (3R,4R) 4-[4-(6-chloro-2-{[5-methyl-1-(2,2,2-trifluoroethyl)-1H-pyrazol-4-yl]amino}quinazolin-7-yl)piperazin-1-yl]oxolan-3-ol] gave an IC50 of 6.35 nM.

Compound `COCC12CC(n3cc(Nc4ncc5cc(Cl)c(N6CCC7(CC6)COC(CO)C7)cc5n4)cn3)(C1)C2` (stereo not drawn) [Ex-3.15, {8-[6-chloro-2-({1-[3-(methoxymethyl)bicyclo[1.1.1]pentan-1-yl]-1H-pyrazol-4-yl}amino)quinazolin-7-yl]-2-oxa-8-azaspiro [4.5]decan-3-yl}methanol] has an IC50 of 0.227 nM.

Work on `Cc1c(Nc2ncc3cc(Cl)c(N4CCN(C5(C)COCC5O)CC4)cc3n2)cnn1C1CC1(F)F` (single isomer, unassigned) [Ex-6.38, (3S,4S) or (3R,4R) 4-[4-(6-chloro-2-{[1-(2,2-(R) or (S)difluorocyclopropyl)-5-methyl-1H-pyrazol-4-yl]amino}quinazolin-7-yl)piperazin-1-yl]-4-methyloxolan-3-ol] yielded an IC50 of 0.835 nM.

`O=C1C2CCC(C2)N1c1ccc2cnc(Nc3ccn(CC(F)(F)F)n3)nc2c1` (stereo not drawn) [Ex-4.8, 2-(2-{[1-(2,2,2-trifluoroethyl)-1H-pyrazol-3-yl]amino}quinazolin-7-yl)-2-azabicyclo[2.2.1]heptan-3-one] was tested, and the IC50 was 8.95 nM.

With `Cc1c(Nc2ncc3cc(Cl)c(N4CCC(C)(O)C(C)C4)cc3n2)cnn1C1CC1` (single isomer, unassigned) [Ex-3.47, (3R,4R) or (3S,4S) or (3R,4S) or (3S,4R) 1-{6-chloro-2-[(1-cyclopropyl-5-methyl-1H-pyrazol-4-yl)amino]quinazolin-7-yl}-3,4-dimethylpiperidin-4-ol] the IC50 was 10.2 nM.

`Cc1c(Nc2ncc3cc(Cl)c(N4CCN(C5(C)COC(C)(C)C5)CC4)cc3n2)cnn1C1CC1` (single isomer, unassigned) [Ex-12.3] showed an IC50 of 186 nM.

In the case of `CCNc1cc2nc(Nc3cnn(C4CCN(C5(C)COC5)CC4)c3Cl)ncc2cc1Cl` [Ex-3.45, 6-chloro-N~2~-{5-chloro-1-[1-(3-methyloxetan-3-yl)piperidin-4-yl]-1H-pyrazol-4-yl}-N~7~- ethylquinazoline-2,7-diamine], the IC50 is reported as 23.5 nM.

`CC1(N2CCN(c3cc4cc(Nc5cnn(C6CC6(F)F)c5Cl)ncc4cc3Cl)CC2)COCC1O` (single isomer, unassigned) [Ex-6.52, (3S,4S) or (3R,4R) 4-(4-(7-chloro-3-((5-chloro-1-(2,2-difluorocyclopropyl)-1H-pyrazol-4-yl)amino)isoquinolin-6-yl)piperazin-1-yl)-4-methyltetrahydrofuran-3-ol] showed an IC50 of 3.12 nM.

`Cc1c(Nc2ncc3cc(Cl)c(N4CCN(C5(C)COCC5O)CC4)cc3n2)cnn1C1CC1` (single isomer, unassigned) [Ex-6.18, (3S,4S) or (3R,4R) 4-(4-{6-chloro-2-[(1-cyclopropyl-5-methyl-1H-pyrazol-4-yl)amino]quinazolin-7-yl}piperazin-1-yl)-4-methyloxolan-3-ol] showed an IC50 of 0.322 nM.
